The target of this assay is T1, 145138 (Aurantiochytrium limacinum, UniProt A0A3S5XF47).
T1 construct: 6x His-tagged full-length ORF overexpressed in A. limacinum; secreted form purified from medium on Ni-Sepharose; cleaved between L159 and A160; N-terminus ALSSS; 30 kDa on SDS-PAGE
Description: inhibition of TF-TG hydrolysis ([…],3-TF-DG release), TLC fluorescence scan. The format is biochemical. The following applies: competitive; substrate TF-TG.

This note sets out measurements from paper PMC6841712 (Scientific Reports, 2019).

T1 sequence (A0A3S5XF47 160-420): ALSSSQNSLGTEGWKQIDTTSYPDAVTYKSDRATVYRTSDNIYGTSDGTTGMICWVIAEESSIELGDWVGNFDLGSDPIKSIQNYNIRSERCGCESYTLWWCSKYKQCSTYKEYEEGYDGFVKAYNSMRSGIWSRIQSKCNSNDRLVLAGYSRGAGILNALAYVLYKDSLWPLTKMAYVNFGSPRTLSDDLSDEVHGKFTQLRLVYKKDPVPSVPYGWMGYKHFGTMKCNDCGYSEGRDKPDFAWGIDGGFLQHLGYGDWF

For the molecule `CCCCCCCCCCCCCCCCCC(=O)O[C@H](CO)COP(=O)([O-])OCC[N+](C)(C)C` [2-acyl LPC], the “inhibition of TF-TG hydrolysis (1,3-TF-DG release), TLC fluorescence scan” value is 2-acyl LPC competitively inhibited the release of fatty acyl chain at sn-2 of TG.
